Experimental data taken from article PMC5908295 (Oncotarget, 2018).

Experiments:
MOLM-16 = experiment: MTS viability assay, 72 h; conditions: MOLM16, 72 h
Method: (§1) On the same day, 50 μL of medium containing tested inhibitor was added to the wells. Each compound was tested at 8 concentrations, in triplicates. As a negative control, the medium containing 0.1% DMSO was used. […] Staurosporine was used at 10 μM as a positive control. One the day of drug addition, basal signal from untreated cells was measured from in triplicate to determine time zero (T0). […] GI50 and LC50 values were extrapolated from a variable (four-parameter) dose-response curve fitted in GraphPad Prism.

EOL-1 = experiment: MTS viability assay, 72 h; conditions: Homo sapiens, EOL1, 72 h
Method: (§2) 15-25 ×10^3 of MV-4-11, MOLM-13, MOLM-14, MOLM-16, KG-1, Eol-1, SKM-1, PL-21, GDM-1, SKNO-1, RS4;11, Kasumi-3 and Kasumi-6 cells were seeded in 150 μL of culture medium onto individual wells in a 96 well plates, in triplicates. On the same day, 50 μL of medium containing tested inhibitor was added to the wells. Each compound was tested at 8 concentrations, in triplicates. As a negative control, the medium containing 0.1% DMSO was used. […] Staurosporine was used at 10 μM as a positive control. One the day of drug addition, basal signal from untreated cells was measured from in triplicate to determine time zero (T0). […] GI50 and LC50 values were extrapolated from a variable (four-parameter) dose-response curve fitted in GraphPad Prism.

RS4;11 = experiment: MTS viability assay, 72 h; conditions: Homo sapiens, RS4-11, 72 h
Method: as §2

KG-1 = experiment: MTS viability assay, 72 h; conditions: Homo sapiens, KG-1, 72 h
Method: as §2

[1] = Blood biochemistry in mice with MV-4-11 tumors; assay type: in vivo; conditions: Cytarabine 50 mg/kg, treatment day 15
Excerpt: All animals were handled in strict accordance with good animal practice as defined by the relevant national and local animal welfare bodies. SCID and SCID/beige C.B-17 mice were provided by Harlan Laboratories or Charles River Laboratories, and were maintained in pathogen free conditions. For the xenograft experiments, age-matched (9-11 weeks old) females were used. 5×10^6 of MV-4-11 or MOLM-16 cells were suspended in a mixture (1:1, v:v) of PBS with Matrigel (BD Biosciences,) and injected subcutaneously (sc), in a total volume of 100 μL, above the groin on the right hind limb. For MOLM-13 and KG-1 cells, a mixture (3:1, v:v) of PBS and Matrigel HC (BD Bioscience,) was used to inject 5 × 10^6 of cell per mouse subcutaneously (sc), in a total volume of 100 μL. When tumors reached 100-130 mm^3, mice were randomized into uniform groups (6-9 mice per group) and subsequently administered the compound. […] At the end of the experiment, mice were anesthetized with isofluran and blood samples for total cell counts and biochemistry were obtained by retro-orbital bleeding. […] 5×10^6 cells suspended in a mixture (3:1, v:v) of PBS and Matrigel were injected as described above. When the tumor volume reached ~120 mm^3, mice were randomized into uniform groups (5 mice per group) and the compound then administered. […] Tumor volume was monitored every second day and calculated using the formula: TV = (a^2×b)/2, where “a” is the short axis in millimeters, and “b” is the long axis in millimeters. Body weight was assessed every day.
Supplementary Table 9: Related to Figure 5C. […] The assessment of
was performed on treatment day 15.
AST – Aspartate aminotransferase, ALT – Alanine transaminase, ALP – alkaline phosphatase, UREA – blood urea nitrogen,
CREA – Creatinine, CK – Creatine kinase, TP- total protein; ALB – Albumin. […]

MV-4-11 = experiment: MTS viability assay, 72 h; conditions: Homo sapiens, MV4-11, 72 h
Method: as §1

MOLM-13 = experiment: MTS viability assay, 72 h; conditions: Homo sapiens, MOLM-13, 72 h
Method: as §2

[2] = Total blood cell counts in mice with MV-4-11 tumors; conditions: Cytarabine 50 mg/kg, treatment day 15
Excerpt: All animals were handled in strict accordance with good animal practice as defined by the relevant national and local animal welfare bodies. SCID and SCID/beige C.B-17 mice were provided by Harlan Laboratories or Charles River Laboratories, and were maintained in pathogen free conditions. For the xenograft experiments, age-matched (9-11 weeks old) females were used. 5×10^6 of MV-4-11 or MOLM-16 cells were suspended in a mixture (1:1, v:v) of PBS with Matrigel (BD Biosciences,) and injected subcutaneously (sc), in a total volume of 100 μL, above the groin on the right hind limb. For MOLM-13 and KG-1 cells, a mixture (3:1, v:v) of PBS and Matrigel HC (BD Bioscience,) was used to inject 5 × 10^6 of cell per mouse subcutaneously (sc), in a total volume of 100 μL. When tumors reached 100-130 mm^3, mice were randomized into uniform groups (6-9 mice per group) and subsequently administered the compound. […] At the end of the experiment, mice were anesthetized with isofluran and blood samples for total cell counts and biochemistry were obtained by retro-orbital bleeding. […] 5×10^6 cells suspended in a mixture (3:1, v:v) of PBS and Matrigel were injected as described above. When the tumor volume reached ~120 mm^3, mice were randomized into uniform groups (5 mice per group) and the compound then administered. […] Tumor volume was monitored every second day and calculated using the formula: TV = (a^2×b)/2, where “a” is the short axis in millimeters, and “b” is the long axis in millimeters. Body weight was assessed every day. […]
Supplementary Table 10: Related to Figure 5C. […] The assessment total
performed on treatment day 15.
RBC – red blood cells, HGB – hemoglobin, HCT – hematocrit, WBC – white blood cells, LYMPH – lymphocytes, MONO
– monocytes, GRA – granulocytes, PLT – platelet, MPV – mean platelet volume.

PL-21 = experiment: MTS viability assay, 72 h; conditions: PL-21, 72 h
Method: as §2

MOLM-6 = experiment: MTS viability assay, 72 h; conditions: 72 h
Method: as §2

SKM-1 = experiment: MTS viability assay, 72 h; conditions: Homo sapiens, SKM-1, 72 h
Method: as §1

OCI-AML-2 = experiment: MTS viability assay, 72 h; conditions: Homo sapiens, OCI-AML2, 72 h
Method: as §1

GDM-1 = experiment: MTS viability assay, 72 h; conditions: Homo sapiens, GDM-1, 72 h
Method: as §2

OCI-AML-3 = experiment: MTS viability assay, 72 h; conditions: Homo sapiens, OCI-AML-3, 72 h
Method: as §2

MOLM-14 = experiment: MTS viability assay, 72 h; conditions: Homo sapiens, MOLM-14, 72 h
Method: as §2

SKNO-1 = experiment: MTS viability assay, 72 h; conditions: SKNO-1, 72 h
Method: as §2

KASUMI-6 = experiment: MTS viability assay, 72 h; conditions: 72 h
Method: as §2

KASUMI-3 = experiment: MTS viability assay, 72 h; conditions: Kasumi-3, 72 h
Method: as §2

MV-4-11 xenograft = experiment: MV-4-11 xenograft, SEL24-B489 and AraC alone or combined; assay type: in vivo, mice; conditions: MV-4-11, AraC alone 50 mg/kg three times weekly IP
Excerpt: All animals were handled in strict accordance with good animal practice as defined by the relevant national and local animal welfare bodies. SCID and SCID/beige C.B-17 mice were provided by Harlan Laboratories or Charles River Laboratories, and were maintained in pathogen free conditions. For the xenograft experiments, age-matched (9-11 weeks old) females were used. 5×10^6 of MV-4-11 or MOLM-16 cells were suspended in a mixture (1:1, v:v) of PBS with Matrigel (BD Biosciences,) and injected subcutaneously (sc), in a total volume of 100 μL, above the groin on the right hind limb. For MOLM-13 and KG-1 cells, a mixture (3:1, v:v) of PBS and Matrigel HC (BD Bioscience,) was used to inject 5 × 10^6 of cell per mouse subcutaneously (sc), in a total volume of 100 μL. When tumors reached 100-130 mm^3, mice were randomized into uniform groups (6-9 mice per group) and subsequently administered the compound. […] At the end of the experiment, mice were anesthetized with isofluran and blood samples for total cell counts and biochemistry were obtained by retro-orbital bleeding. […] 5×10^6 cells suspended in a mixture (3:1, v:v) of PBS and Matrigel were injected as described above. […] Tumor volume was monitored every second day and calculated using the formula: TV = (a^2×b)/2, where “a” is the short axis in millimeters, and “b” is the long axis in millimeters. Body weight was assessed every day.

SIG-M5 = experiment: MTS viability assay, 72 h; conditions: Homo sapiens, SIG-M5, 72 h
Method: as §1

[3] = set-up: method as in PMID 21628411, PMID 24953177; conditions: off-target inhibition of the potassium channel hERG; cited from earlier work

For `Nc1ccn([C@@H]2O[C@H](CO)[C@@H](O)[C@@H]2O)c(=O)n1` [Cytarabine], the GI50 (MOLM-16) was 22 nM, the CC50 (MOLM-16; read-out: LC50) was > 10000 nM and the GI50 (EOL-1) was 24 nM. For the same compound, the GI50 (RS4;11) was < 5 nM, the CC50 (RS4;11; read-out: LC50) was 23 nM and the GI50 (KG-1) was 12 nM. The CC50 (KG-1; read-out: LC50) was 71 nM, the ALB [1] was 4.6 g/dL and the ALP [1] was 87.6 U/L. The ALT [1] was 153.7 U/L, the AST [1] was 247.1 U/L and the CK [1] was 1709 U/L. The CREA [1] was 0.37 mg/dL, the K [1] was 5.4 mM and the TP [1] was 4.6 g/dL. The UREA [1] was 5.9 mmol/L, the GI50 (MV-4-11) was 340 nM and the CC50 (MV-4-11; read-out: LC50) was > 10000 nM. For the same compound, the GI50 (MOLM-13) was < 5 nM, the CC50 (MOLM-13; read-out: LC50) was > 10000 nM and the GRA [2] was 51.9%. It also gave an HCT [2] of 49.5%, an HGB [2] of 14.4 g/dL and an LYMPH [2] of 37.7%. For the same compound, the MONO [2] was 10.3%, the MPV [2] was 5.9 μm3 and the PLT [2] was 1098 103/mm3. For the same compound, the RBC [2] was 9.9 106/mm3, the WBC [2] was 5.0 103/mm3 and the GI50 (PL-21) was < 5 nM. The GI50 (MOLM-6) was 30 nM, the CC50 (MOLM-6; read-out: LC50) was > 10000 nM and the GI50 (SKM-1) was 28 nM. The CC50 (SKM-1; read-out: LC50) was 6460 nM, the GI50 (OCI-AML-2) was < 5 nM and the CC50 (OCI-AML-2; read-out: LC50) was 21 nM. For the same compound, the GI50 (GDM-1) was < 5 nM, the GI50 (OCI-AML-3) was 81 nM and the CC50 (OCI-AML-3; read-out: LC50) was > 10000 nM. The GI50 (MOLM-14) was 48 nM, the CC50 (MOLM-14; read-out: LC50) was > 10000 nM and the GI50 (SKNO-1) was < 5 nM. The GI50 (KASUMI-6) was < 5 nM, the GI50 (KASUMI-3) was < 5 nM and the CC50 (KASUMI-3; read-out: LC50) was 28 nM. The “decrease of tumor growth” value (MV-4-11 xenograft) was 66%, the GI50 (SIG-M5) was 46 nM and the CC50 (SIG-M5; read-out: LC50) was > 10000 nM.
For `CN1CCC(CNc2ccc3ncc(-c4cccc(OC(F)(F)F)c4)n3n2)CC1` [SGI-1776], the “outcome of clinical testing” value [3] is given as “failed clinical testing due to a narrow therapeutic window and cardiac toxicity”.
